Key:
Assay type in all cases: in vivo
[1] = tested on: Italian ryegrass (Lolium multiflorum); test: Test C pre-/postemergence greenhouse test, plant response rating 0-100; details: Postemergence; for Plant response rating, Ryegrass, Italian: scale 0 to 100
How it was run: (§1)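 Seeds were sown in a loam soil–sand blend and sprayed preemergence with test chemicals in a non-phytotoxic solvent mixture containing surfactant; postemergence plants in peat/vermiculite medium were treated at 2–18 cm (1- to 4-leaf stage). After 13 to 15 days in the greenhouse, injury was rated visually against untreated controls.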

[2] = tested on: blackgrass (Alopecurus myosuroides); test: as above; details: Postemergence; for Plant response rating, Blackgrass: scale 0 to 100
How it was run: as §1

corn (Zea mays) = test: as above; details: Postemergence; for Plant response rating, Corn: scale 0 to 100
How it was run: as §1

[3] = tested on: galium (catchweed bedstraw, Galium aparine); test: as above; details: Postemergence; for Plant response rating, Galium: scale 0 to 100
How it was run: as §1

[4] = tested on: giant foxtail (Setaria faberii); test: as above; details: Postemergence; for Plant response rating, Foxtail, Giant: scale 0 to 100
How it was run: as §1

[5] = tested on: large (Lg) crabgrass (Digitaria sanguinalis); test: as above; details: Postemergence; for Plant response rating, Crabgrass, Large: scale 0 to 100
How it was run: as §1

[6] = tested on: pigweed (Amaranthus retroflexus); test: as above; details: Postemergence; for Plant response rating, Pigweed: scale 0 to 100
How it was run: as §1

[7] = tested on: ragweed (common ragweed, Ambrosia elatior); test: as above; details: Postemergence; for Plant response rating, Ragweed: scale 0 to 100
How it was run: as §1

soybean (Glycine max) = test: as above; details: Postemergence; for Plant response rating, Soybean: scale 0 to 100
How it was run: as §1

[8] = tested on: winter wheat (Triticum aestivum); test: as above; details: Postemergence; for Plant response rating, Wheat: scale 0 to 100
How it was run: as §1

[9] = tested on: yellow nutsedge (Cyperus esculentus); test: as above; details: Postemergence; for Plant response rating, Nutsedge, Yellow: scale 0 to 100
How it was run: as §1

[10] = tested on: chickweed (common chickweed, Stellaria media); test: Test C postemergence greenhouse test, plant response rating 0-100; details: for Plant response rating, Chickweed: scale 0 to 100
How it was run: (§2)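 Visual rating vs. controls, 0 (no effect) to 100 (complete control), 13–15 d after postemergence treatment. Potted plants, 1- to 4-leaf stage (2–18 cm), greenhouse-held.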

kochia (Kochia scoparia) = test: as above; details: for Plant response rating, Kochia: scale 0 to 100
How it was run: as §2

wild oat (Avena fatua) = test: as above; details: for Plant response rating, Oat, Wild: scale 0 to 100
How it was run: as §2

## ON=C(c1ccccc1)c1c[nH]nc1-c1cc(Cl)cc(Cl)c1 [Compound 50]
[1]; 62 g ai/ha
  Plant response rating (0 to 100), Ryegrass, Italian: 0
[1]; 125 g ai/ha
  Plant response rating (0 to 100), Ryegrass, Italian: 0
[1]; 250 g ai/ha
  Plant response rating, Ryegrass, Italian: 0
[2]; 31 g ai/ha
  Plant response rating (0 to 100), Blackgrass: 0
[2]; 62 g ai/ha
  Plant response rating (0 to 100), Blackgrass: 0
[2]; 125 g ai/ha
  Plant response rating (0 to 100), Blackgrass: 0
[2]; 250 g ai/ha
  Plant response rating, Blackgrass: 0
Corn (Zea mays); 31 g ai/ha
  Plant response rating (0 to 100), Corn: 0
Corn (Zea mays); 62 g ai/ha
  Plant response rating (0 to 100), Corn: 0
Corn (Zea mays); 125 g ai/ha
  Plant response rating (0 to 100), Corn: 0
Corn (Zea mays); 250 g ai/ha
  Plant response rating, Corn: 0
[3]; 31 g ai/ha
  Plant response rating (0 to 100), Galium: 0
[3]; 62 g ai/ha
  Plant response rating (0 to 100), Galium: 0
[3]; 125 g ai/ha
  Plant response rating (0 to 100), Galium: 5
[3]; 250 g ai/ha
  Plant response rating, Galium: 5
[4]; 31 g ai/ha
  Plant response rating (0 to 100), Foxtail, Giant: 0
[4]; 62 g ai/ha
  Plant response rating (0 to 100), Foxtail, Giant: 0
[4]; 125 g ai/ha
  Plant response rating (0 to 100), Foxtail, Giant: 0
[4]; 250 g ai/ha
  Plant response rating, Foxtail, Giant: 0
[5]; 31 g ai/ha
  Plant response rating (0 to 100), Crabgrass, Large: 0
[5]; 62 g ai/ha
  Plant response rating (0 to 100), Crabgrass, Large: 0
[5]; 125 g ai/ha
  Plant response rating (0 to 100), Crabgrass, Large: 0
[5]; 250 g ai/ha
  Plant response rating, Crabgrass, Large: 0
[6]; 62 g ai/ha
  Plant response rating (0 to 100), Pigweed: 75
[6]; 125 g ai/ha
  Plant response rating (0 to 100), Pigweed: 100
[6]; 250 g ai/ha
  Plant response rating, Pigweed: 100
[7]; 62 g ai/ha
  Plant response rating (0 to 100), Ragweed: 0
[7]; 125 g ai/ha
  Plant response rating (0 to 100), Ragweed: 0
[7]; 250 g ai/ha
  Plant response rating, Ragweed: 45
Soybean (Glycine max); 62 g ai/ha
  Plant response rating (0 to 100), Soybean: 0
Soybean (Glycine max); 125 g ai/ha
  Plant response rating (0 to 100), Soybean: 0
Soybean (Glycine max); 250 g ai/ha
  Plant response rating, Soybean: 0
[8]; 62 g ai/ha
  Plant response rating (0 to 100), Wheat: 0
[8]; 125 g ai/ha
  Plant response rating (0 to 100), Wheat: 0
[8]; 250 g ai/ha
  Plant response rating, Wheat: 0
[9]; 62 g ai/ha
  Plant response rating (0 to 100), Nutsedge, Yellow: 0
[9]; 125 g ai/ha
  Plant response rating (0 to 100), Nutsedge, Yellow: 0
[9]; 250 g ai/ha
  Plant response rating, Nutsedge, Yellow: 0
[10]; 31 g ai/ha
  Plant response rating (0 to 100), Chickweed: 95
[10]; 62 g ai/ha
  Plant response rating (0 to 100), Chickweed: 95
[10]; 125 g ai/ha
  Plant response rating (0 to 100), Chickweed: 100
[10]; 250 g ai/ha
  Plant response rating, Chickweed: 100
Kochia (Kochia scoparia); 62 g ai/ha
  Plant response rating (0 to 100), Kochia: 60
Kochia (Kochia scoparia); 125 g ai/ha
  Plant response rating (0 to 100), Kochia: 65
Kochia (Kochia scoparia); 250 g ai/ha
  Plant response rating, Kochia: 65
Wild oat (Avena fatua); 62 g ai/ha
  Plant response rating (0 to 100), Oat, Wild: 0
Wild oat (Avena fatua); 125 g ai/ha
  Plant response rating (0 to 100), Oat, Wild: 0
Wild oat (Avena fatua); 250 g ai/ha
  Plant response rating, Oat, Wild: 0

## Fc1cccc(NN=C(c2ccccc2)c2c[nH]nc2-c2cc(Cl)cc(Cl)c2)c1 [Compound 58]
[1]; 62 g ai/ha
  Plant response rating (0 to 100), Ryegrass, Italian: 0
[1]; 125 g ai/ha
  Plant response rating (0 to 100), Ryegrass, Italian: 0
[1]; 250 g ai/ha
  Plant response rating, Ryegrass, Italian: 0
[1]; 500 g ai/ha
  Plant response rating, Ryegrass, Italian: 0
[2]; 62 g ai/ha
  Plant response rating (0 to 100), Blackgrass: 0
[2]; 125 g ai/ha
  Plant response rating (0 to 100), Blackgrass: 0
[2]; 250 g ai/ha
  Plant response rating, Blackgrass: 0
[2]; 500 g ai/ha
  Plant response rating, Blackgrass: 0
Corn (Zea mays); 62 g ai/ha
  Plant response rating (0 to 100), Corn: 0
Corn (Zea mays); 125 g ai/ha
  Plant response rating (0 to 100), Corn: 5
Corn (Zea mays); 250 g ai/ha
  Plant response rating, Corn: 5
Corn (Zea mays); 500 g ai/ha
  Plant response rating, Corn: 5
[3]; 62 g ai/ha
  Plant response rating (0 to 100), Galium: 0
[3]; 125 g ai/ha
  Plant response rating (0 to 100), Galium: 0
[3]; 250 g ai/ha
  Plant response rating, Galium: 0
[3]; 500 g ai/ha
  Plant response rating, Galium: 5
[4]; 62 g ai/ha
  Plant response rating (0 to 100), Foxtail, Giant: 0
[4]; 125 g ai/ha
  Plant response rating (0 to 100), Foxtail, Giant: 0
[4]; 250 g ai/ha
  Plant response rating, Foxtail, Giant: 0
[4]; 500 g ai/ha
  Plant response rating, Foxtail, Giant: 5
[5]; 62 g ai/ha
  Plant response rating (0 to 100), Crabgrass, Large: 5
[5]; 125 g ai/ha
  Plant response rating (0 to 100), Crabgrass, Large: 5
[5]; 250 g ai/ha
  Plant response rating, Crabgrass, Large: 5
[5]; 500 g ai/ha
  Plant response rating, Crabgrass, Large: 5
[6]; 62 g ai/ha
  Plant response rating (0 to 100), Pigweed: 100
[6]; 125 g ai/ha
  Plant response rating (0 to 100), Pigweed: 100
[6]; 250 g ai/ha
  Plant response rating, Pigweed: 100
[6]; 500 g ai/ha
  Plant response rating, Pigweed: 100
[7]; 62 g ai/ha
  Plant response rating (0 to 100), Ragweed: 10
[7]; 125 g ai/ha
  Plant response rating (0 to 100), Ragweed: 40
[7]; 250 g ai/ha
  Plant response rating, Ragweed: 50
[7]; 500 g ai/ha
  Plant response rating, Ragweed: 65
Soybean (Glycine max); 62 g ai/ha
  Plant response rating (0 to 100), Soybean: 0
Soybean (Glycine max); 125 g ai/ha
  Plant response rating (0 to 100), Soybean: 5
Soybean (Glycine max); 250 g ai/ha
  Plant response rating, Soybean: 10
Soybean (Glycine max); 500 g ai/ha
  Plant response rating, Soybean: 10
[8]; 62 g ai/ha
  Plant response rating (0 to 100), Wheat: 0
[8]; 125 g ai/ha
  Plant response rating (0 to 100), Wheat: 0
[8]; 250 g ai/ha
  Plant response rating, Wheat: 0
[8]; 500 g ai/ha
  Plant response rating, Wheat: 0
[9]; 62 g ai/ha
  Plant response rating (0 to 100), Nutsedge, Yellow: 0
[9]; 125 g ai/ha
  Plant response rating (0 to 100), Nutsedge, Yellow: 0
[9]; 250 g ai/ha
  Plant response rating, Nutsedge, Yellow: 0
[9]; 500 g ai/ha
  Plant response rating, Nutsedge, Yellow: 0
[10]; 62 g ai/ha
  Plant response rating (0 to 100), Chickweed: 70
[10]; 125 g ai/ha
  Plant response rating (0 to 100), Chickweed: 100
[10]; 250 g ai/ha
  Plant response rating, Chickweed: 100
[10]; 500 g ai/ha
  Plant response rating, Chickweed: 100
Kochia (Kochia scoparia); 62 g ai/ha
  Plant response rating (0 to 100), Kochia: 15
Kochia (Kochia scoparia); 125 g ai/ha
  Plant response rating (0 to 100), Kochia: 50
Kochia (Kochia scoparia); 250 g ai/ha
  Plant response rating, Kochia: 98
Kochia (Kochia scoparia); 500 g ai/ha
  Plant response rating, Kochia: 98
Wild oat (Avena fatua); 62 g ai/ha
  Plant response rating (0 to 100), Oat, Wild: 0
Wild oat (Avena fatua); 125 g ai/ha
  Plant response rating (0 to 100), Oat, Wild: 0
Wild oat (Avena fatua); 250 g ai/ha
  Plant response rating, Oat, Wild: 0
Wild oat (Avena fatua); 500 g ai/ha
  Plant response rating, Oat, Wild: 0

From US10167262B2, “Herbicidal substituted 3-arylpyrazoles” (FMC CORPORATION, priority 2014, dated 2019)
